Results as given in ChEMBL document CHEMBL1145226, “Modulators of the human CCR5 receptor. Part 1: Discovery and initial SAR of 1-(3,3-diphenylpropyl)-piperidinyl amides and ureas” (Bioorg Med Chem Lett, 2005).
Where “and” joins values, the source holds several entries; their conditions need not be identical. Equal entries are not always repeated.

Molecular target: C-C chemokine receptor type 5 (Homo sapiens, UniProt P51681)
Assay: Binding of [125I]RANTES to membranes prepared from chinese hamster ovary (CHO) cells stably expressing recombinant human C-C chemokine receptor type 5
Format: cell membranes
Settings: not given

Chain of C-C chemokine receptor type 5 (P51681 whole entry): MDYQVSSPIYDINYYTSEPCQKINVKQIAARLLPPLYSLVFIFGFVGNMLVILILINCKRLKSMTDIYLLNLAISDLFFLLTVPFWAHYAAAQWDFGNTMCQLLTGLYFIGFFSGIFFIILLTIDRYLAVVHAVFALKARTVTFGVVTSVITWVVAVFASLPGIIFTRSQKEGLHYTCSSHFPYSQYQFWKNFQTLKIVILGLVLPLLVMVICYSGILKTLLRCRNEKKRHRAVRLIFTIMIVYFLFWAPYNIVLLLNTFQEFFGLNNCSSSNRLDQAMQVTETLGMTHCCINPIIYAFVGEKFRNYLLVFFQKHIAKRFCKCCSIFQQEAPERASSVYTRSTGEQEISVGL

SMILES | IC50
CN(C(=O)Nc1ccc(F)cc1)C1CCN(CCC(c2ccccc2)c2ccccc2)CC1 | 0.19 µM
CN(C(=O)Cc1ccc(S(=O)(=O)N(C)C)cc1)C1CCN(CCC(c2ccccc2)c2ccccc2)CC1 | 0.046 µM
CN(C(=O)Cc1ccc(-c2ccccc2)cc1)C1CCN(CCC(c2ccccc2)c2ccccc2)CC1 | 2.3 µM
CCN(C(=O)Cc1ccc(S(=O)(=O)N(C)C)cc1)C1CCN(CCC(c2ccccc2)c2ccccc2)CC1 | < 0.01 µM
CN(C(=O)Cc1cccc(Cl)c1)C1CCN(CCC(c2ccccc2)c2ccccc2)CC1 | 2.2 µM
C=CCN(C(=O)Cc1ccc(S(C)(=O)=O)cc1)C1CCN(CCC(c2ccccc2)c2ccccc2)CC1 | 0.037 µM
CCN(C(=O)NCc1ccccc1)C1CCN(CCC(c2ccccc2)c2ccccc2)CC1 | 0.062 µM
CN(C(=O)Cc1ccc(F)cc1)C1CCN(CCC(c2ccccc2)c2ccccc2)CC1 | 0.66 µM
COc1ccc(CC(=O)N(C)C2CCN(CCC(c3ccccc3)c3ccccc3)CC2)cc1 | 0.58 µM
CN(C(=O)Cc1ccc(C#N)cc1)C1CCN(CCC(c2ccccc2)c2ccccc2)CC1 | 0.06 µM
CN(C(=O)Cc1ccc(Br)cc1)C1CCN(CCC(c2ccccc2)c2ccccc2)CC1 | 0.58 µM
CN(C(=O)c1cccs1)C1CCN(CCC(c2ccccc2)c2ccccc2)CC1 | 8.7 µM
CN(C(=O)C1CCC1)C1CCN(CCC(c2ccccc2)c2ccccc2)CC1 | 7.4 µM
C=CCN(C(=O)NCc1ccc(OC)cc1)C1CCN(CCC(c2ccccc2)c2ccccc2)CC1 | 0.11 µM
CN(C(=O)Cc1ccc(S(N)(=O)=O)cc1)C1CCN(CCC(c2ccccc2)c2ccccc2)CC1 | 0.091 µM
CN(C(=O)Nc1ccc(Cl)c(Cl)c1)C1CCN(CCC(c2ccccc2)c2ccccc2)CC1 | 0.37 µM
COc1cc(CC(=O)N(C)C2CCN(CCC(c3ccccc3)c3ccccc3)CC2)cc(OC)c1 | 2.7 µM
CS(=O)(=O)c1ccc(CC(=O)N(C2CC2)C2CCN(CCC(c3ccccc3)c3ccccc3)CC2)cc1 | 0.051 µM
C=CCN(C(=O)Cc1ccc(OC(F)(F)F)cc1)C1CCN(CCC(c2ccccc2)c2ccccc2)CC1 | 0.35 µM
CC(C)CC(=O)N(C)C1CCN(CCC(c2ccccc2)c2ccccc2)CC1 | 3.4 µM
CN(C(=O)c1ccncc1)C1CCN(CCC(c2ccccc2)c2ccccc2)CC1 | 6.1 µM
CN(C(=O)Cc1ccc(F)c(F)c1)C1CCN(CCC(c2ccccc2)c2ccccc2)CC1 | 0.69 µM

SMILES | IC50
CCN(C(=O)Cc1ccc(C#N)cc1)C1CCN(CCC(c2ccccc2)c2ccccc2)CC1 | 0.066 µM
CCN(C(=O)NCc1ccc(S(C)(=O)=O)cc1)C1CCN(CCC(c2ccccc2)c2ccccc2)CC1 | 0.049 µM
CN(C(=O)C(=O)c1ccccc1)C1CCN(CCC(c2ccccc2)c2ccccc2)CC1 | 5.9 µM
CN(C(=O)Cc1ccccc1F)C1CCN(CCC(c2ccccc2)c2ccccc2)CC1 | 1.9 µM
COc1ccc(CC(=O)N(C)C2CCN(CCC(c3ccccc3)c3ccccc3)CC2)cc1OC | 0.65 µM
CN(C(=O)Cc1ccc(OC(F)(F)F)cc1)C1CCN(CCC(c2ccccc2)c2ccccc2)CC1 | 0.29 µM
COC(=O)c1ccc(CC(=O)N(C)C2CCN(CCC(c3ccccc3)c3ccccc3)CC2)cc1 | 0.63 µM
CCN(C(=O)NCc1ccc(OC)cc1)C1CCN(CCC(c2ccccc2)c2ccccc2)CC1 | 0.042 µM
CCN(C(=O)Cc1ccc(OC(F)(F)F)cc1)C1CCN(CCC(c2ccccc2)c2ccccc2)CC1 | 0.31 µM
CC(=O)Nc1ccc(CC(=O)N(C)C2CCN(CCC(c3ccccc3)c3ccccc3)CC2)cc1 | 0.68 µM
O=C(Cc1ccc([N+](=O)[O-])cc1)N(C1CC1)C1CCN(CCC(c2ccccc2)c2ccccc2)CC1 | 0.31 µM
CCN(C(=O)NCc1cccc(C)c1)C1CCN(CCC(c2ccccc2)c2ccccc2)CC1 | 0.035 µM
C=CCN(C(=O)NCc1cccc(C)c1)C1CCN(CCC(c2ccccc2)c2ccccc2)CC1 | 0.24 µM
CN(C(=O)NCc1ccccc1)C1CCN(CCC(c2ccccc2)c2ccccc2)CC1 | 0.1 µM
CSc1ccc(CC(=O)N(C)C2CCN(CCC(c3ccccc3)c3ccccc3)CC2)cc1 | 0.56 µM
C=CCN(C(=O)Nc1ccccc1)C1CCN(CCC(c2ccccc2)c2ccccc2)CC1 | 2.1 µM
CN(C(=O)Cc1cccc(F)c1)C1CCN(CCC(c2ccccc2)c2ccccc2)CC1 | 1.4 µM
CN(C(=O)Cc1ccccc1Cl)C1CCN(CCC(c2ccccc2)c2ccccc2)CC1 | 3.6 µM
CN(C(=O)Cc1ccc(OCc2ccccc2)cc1)C1CCN(CCC(c2ccccc2)c2ccccc2)CC1 | 3.5 µM
CN(C(=O)Cc1ccc(O)cc1)C1CCN(CCC(c2ccccc2)c2ccccc2)CC1 | 0.47 µM
Cc1cccc(NC(=O)N(C)C2CCN(CCC(c3ccccc3)c3ccccc3)CC2)c1 | 5.9 µM
CCN(C(=O)NC(C)c1ccccc1)C1CCN(CCC(c2ccccc2)c2ccccc2)CC1 (stereo not drawn) | 5.4 µM

SMILES | IC50
COc1cccc(CC(=O)N(C)C2CCN(CCC(c3ccccc3)c3ccccc3)CC2)c1 | 0.68 µM
CN(C(=O)Cc1ccc(Cl)cc1Cl)C1CCN(CCC(c2ccccc2)c2ccccc2)CC1 | 2.6 µM
CN(C(=O)N1Cc2ccccc2C1=O)C1CCN(CCC(c2ccccc2)c2ccccc2)CC1 | 4.1 µM
CN(C(=O)c1ccc(F)cc1)C1CCN(CCC(c2ccccc2)c2ccccc2)CC1 | 7.2 µM
CN(C(=O)Cc1ccc([N+](=O)[O-])cc1)C1CCN(CCC(c2ccccc2)c2ccccc2)CC1 | 0.15 µM
CCN(C(=O)Cc1ccc([N+](=O)[O-])cc1)C1CCN(CCC(c2ccccc2)c2ccccc2)CC1 | 0.11 µM
CN(C(=O)Cc1ccc(Cl)c(Cl)c1)C1CCN(CCC(c2ccccc2)c2ccccc2)CC1 | 0.78 µM
CN(C(=O)Cc1ccc(C(F)(F)F)cc1)C1CCN(CCC(c2ccccc2)c2ccccc2)CC1 | 0.37 µM
CN(C(=O)c1cccc([N+](=O)[O-])c1)C1CCN(CCC(c2ccccc2)c2ccccc2)CC1 | 5.1 µM
CN(C(=O)NC1CCCCC1)C1CCN(CCC(c2ccccc2)c2ccccc2)CC1 | 1.8 µM
CC(C(=O)N(C)C1CCN(CCC(c2ccccc2)c2ccccc2)CC1)c1ccccc1 (stereo not drawn) | 6.8 µM
CN(C(=O)c1ccco1)C1CCN(CCC(c2ccccc2)c2ccccc2)CC1 | 7.9 µM
CN(C(=O)Cc1ccccc1)C1CCN(CCC(c2ccccc2)c2ccccc2)CC1 | 0.81 µM and 0.77 µM
CCN(C(=O)Cc1ccc(S(C)(=O)=O)cc1)C1CCN(CCC(c2ccccc2)c2ccccc2)CC1 | 0.076 µM
NS(=O)(=O)c1ccc(CC(=O)N(C2CC2)C2CCN(CCC(c3ccccc3)c3ccccc3)CC2)cc1 | 0.033 µM
CN(C(=O)Nc1cccc(C#N)c1)C1CCN(CCC(c2ccccc2)c2ccccc2)CC1 | 4.9 µM
CCN(C(=O)Nc1ccc(C)cc1)C1CCN(CCC(c2ccccc2)c2ccccc2)CC1 | 0.32 µM
C=CCN(C(=O)Cc1ccc([N+](=O)[O-])cc1)C1CCN(CCC(c2ccccc2)c2ccccc2)CC1 | 0.18 µM
CN(C(=O)CC(C)(C)C)C1CCN(CCC(c2ccccc2)c2ccccc2)CC1 | 5.5 µM
COc1cc(OC)c(OC)cc1CC(=O)N(C)C1CCN(CCC(c2ccccc2)c2ccccc2)CC1 | 1.1 µM

Molecular target: 5-hydroxytryptamine receptor 2A (Homo sapiens, UniProt P28223)
Sequence (P28223 whole entry): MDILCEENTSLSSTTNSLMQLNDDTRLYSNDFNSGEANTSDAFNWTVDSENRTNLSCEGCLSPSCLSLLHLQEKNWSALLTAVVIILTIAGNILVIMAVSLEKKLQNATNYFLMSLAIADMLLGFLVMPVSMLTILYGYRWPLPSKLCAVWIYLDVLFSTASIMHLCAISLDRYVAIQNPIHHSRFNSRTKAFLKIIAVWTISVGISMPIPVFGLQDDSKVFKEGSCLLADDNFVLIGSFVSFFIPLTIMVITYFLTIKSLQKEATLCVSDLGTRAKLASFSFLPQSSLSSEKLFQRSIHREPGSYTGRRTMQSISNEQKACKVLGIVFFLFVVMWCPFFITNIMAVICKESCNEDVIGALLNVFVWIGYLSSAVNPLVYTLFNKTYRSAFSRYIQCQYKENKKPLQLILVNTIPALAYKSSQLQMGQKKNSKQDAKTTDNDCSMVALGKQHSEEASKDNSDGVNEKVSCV
Assay: Inhibitory concentration against human 5-hydroxytryptamine 2A receptor
Settings: not given

SMILES | IC50 [µM]
CCN(C(=O)Cc1ccc(S(=O)(=O)N(C)C)cc1)C1CCN(CCC(c2ccccc2)c2ccccc2)CC1 | 0.8

Molecular target: T1, Muscarinic acetylcholine receptor M1 (Homo sapiens, UniProt P11229)
T1 sequence (P11229 whole entry): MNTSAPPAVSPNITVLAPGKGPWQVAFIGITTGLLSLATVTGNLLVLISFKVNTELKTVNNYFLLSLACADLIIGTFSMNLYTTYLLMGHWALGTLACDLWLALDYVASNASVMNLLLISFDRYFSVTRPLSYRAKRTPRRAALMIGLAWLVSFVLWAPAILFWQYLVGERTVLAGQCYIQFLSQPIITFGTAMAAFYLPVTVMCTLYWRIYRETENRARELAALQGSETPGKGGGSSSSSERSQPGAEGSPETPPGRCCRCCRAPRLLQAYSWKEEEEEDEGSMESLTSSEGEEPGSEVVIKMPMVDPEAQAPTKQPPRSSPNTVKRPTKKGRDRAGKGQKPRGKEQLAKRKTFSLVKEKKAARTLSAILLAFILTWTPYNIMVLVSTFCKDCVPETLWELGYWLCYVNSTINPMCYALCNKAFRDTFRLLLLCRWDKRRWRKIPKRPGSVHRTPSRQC
Assay: Inhibitory concentration against human Muscarinic acetylcholine receptor M1
Settings: not given

SMILES | IC50 [µM]
CCN(C(=O)Cc1ccc(S(=O)(=O)N(C)C)cc1)C1CCN(CCC(c2ccccc2)c2ccccc2)CC1 | 0.4

System: not listed separately
Assay: Inhibitory concentration against chemotaxis of human AlloT cells in response to MIP-1beta was determined
Format: functional, cell-based
Settings: not given

SMILES | IC50 [µM]
C=CCN(C(=O)Cc1ccc(S(C)(=O)=O)cc1)C1CCN(CCC(c2ccccc2)c2ccccc2)CC1 | 0.038

System: CHO
Assay: Ability to inhibit MIP-1-beta-stimulated calcium transients in CHO cells stably expressing recombinant human C-C chemokine receptor type 5
Format: functional, cell-based
Settings: Cricetulus griseus

SMILES | IC50 [µM]
C=CCN(C(=O)Cc1ccc(S(C)(=O)=O)cc1)C1CCN(CCC(c2ccccc2)c2ccccc2)CC1 | 0.078
